Measurements: ChEMBL document CHEMBL4330066, “Carbohydrate-naphthalene diimide conjugates as potential antiparasitic drugs: Synthesis, evaluation and structure-activity studies” (Eur J Med Chem, 2019)

Experiments:
MRC5 = assay: Cytotoxicity against human MRC5 cells assessed as reduction in cell viability after 48 hrs by MTT assay; assay type: cell-based; conditions: MRC5, 48 h
[1] = Selectivity index, ratio of IC50 for human MRC5 cells to IC50 for Trypanosoma brucei Lister 427, antigenic type MiTat 1.2, clone 221a; assay type: toxicity; conditions: MRC5 cells versus Trypanosoma brucei Lister 427, read-out: Ratio IC50
Leishmania major [2] = assay: Leishmaniacidal activity against Leishmania major MHOM/IL/80/Friedlin promastigotes after 72 hrs by MTT assay; assay type: functional, organism-based
[3] = Selectivity index, ratio of TC50 for human THP1 cells to IC50 for Leishmania major MHOM/IL/80/Friedlin amastigotes; assay type: toxicity; conditions: THP1 cells versus Leishmania major amastigotes, read-out: Selectivity Index
[4] = Cytotoxicity against human THP1 cells; assay type: cell-based; conditions: THP-1 cells, read-out: TC50 (the source's name)
Leishmania major [5] = assay: Leishmaniacidal activity against Leishmania major MHOM/IL/80/Friedlin amastigotes infected in human THP1 cells after 72 hrs by luciferase luminescence assay; assay type: functional, organism-based; conditions: THP-1, 72 h
Trypanosoma brucei = assay: Trypanocidal activity against Trypanosoma brucei Lister 427, antigenic type MiTat 1.2, clone 221a after 72 hrs by alamarBlue assay; assay type: functional, organism-based; conditions: Lister 427, 72 h

Row | Structure (SMILES) | IC50 (MRC5) [nM] | selectivity ratio [1] | IC50 (Leishmania major [2]) [nM] | selectivity ratio [3] | CC50 [4] [nM] | IC50 (Leishmania major [5]) [nM] | IC50 (Trypanosoma brucei) [nM]
1 | CN(C)CCCc1cc2c3c(c(NCCCn4cc(COCCOCCOCCO[C@@H]5O[C@H](CO)[C@@H](O)[C@H](O)[C@H]5O)nn4)cc4c3c1C(=O)N(CCCN(C)C)C4=O)C(=O)N(CCCN(C)C)C2=O | 8850 | 25.3 | 270 | > 2.8 | > 10000 | 3590 | 350
2 | CN(C)CCCc1cc2c3c(c(NCCCn4cc(CCO[C@@H]5O[C@H](CO)[C@@H](O[C@@H]6O[C@H](CO)[C@H](O)[C@H](O)[C@H]6O)[C@H](O)[C@H]5O)nn4)cc4c3c1C(=O)N(CCCN(C)C)C4=O)C(=O)N(CCCN(C)C)C2=O | 7160 | 13.5 | 280 | – | > 10000 | > 5000 | 530
3 | CN(C)CCCN1C(=O)c2ccc3c4c(c(NCc5cn(CCO[C@@H]6O[C@H](CO)[C@@H](O)[C@H](O)[C@H]6O)nn5)cc(c24)C1=O)C(=O)N(CCCN(C)C)C3=O | – | – | – | 2 | 8650 | 4420 | 17
4 | CN(C)CCCc1cc2c3c(c(NCCCn4cc(COCCOCCOCCO[C@H]5O[C@H](CO)[C@@H](O)[C@H](O)[C@@H]5O)nn4)cc4c3c1C(=O)N(CCCN(C)C)C4=O)C(=O)N(CCCN(C)C)C2=O | 6470 | 34 | 4750 | – | – | – | 190
5 | CCCNc1cc2c3c(ccc4c3c1C(=O)N(CCCN(C)C)C4=O)C(=O)N(CCCN(C)C)C2=O | – | 40 | – | 6 | 3650 | 610 | 9
6 | CN(C)CCCc1cc2c3c(c(NCCCn4cc(CO[C@@H]5O[C@H](CO)[C@@H](O[C@@H]6O[C@H](CO)[C@H](O)[C@H](O)[C@H]6O)[C@H](O)[C@H]5O)nn4)cc4c3c1C(=O)N(CCCN(C)C)C4=O)C(=O)N(CCCN(C)C)C2=O | 6610 | 17.9 | 20000 | – | – | – | 370
7 | CN(C)CCCc1cc2c3c(c(NCCCn4cc(CO[C@H]5O[C@H](CO)[C@@H](O)[C@H](O)[C@@H]5O)nn4)cc4c3c1C(=O)N(CCCN(C)C)C4=O)C(=O)N(CCCN(C)C)C2=O | 6610 | 15 | 180 | – | > 10000 | > 5000 | 440
8 | CN(C)CCCc1cc2c3c(c(NCCCn4cc(CO[C@@H]5O[C@H](CO)[C@@H](O[C@H]6O[C@H](CO)[C@@H](O)[C@H](O)[C@H]6O)[C@H](O)[C@H]5O)nn4)cc4c3c1C(=O)N(CCCN(C)C)C4=O)C(=O)N(CCCN(C)C)C2=O | 9560 | 30.8 | 11400 | – | – | – | 310
9 | CN(C)CCCN1C(=O)c2ccc3c4c(c(NCCCn5cc(COCCOCCOCCO[C@H]6O[C@H](CO)[C@@H](O)[C@H](O)[C@@H]6O)nn5)cc(c24)C1=O)C(=O)N(CCCN(C)C)C3=O | 1360 | 10.5 | 6120 | – | – | – | 130
10 | CN(C)CCCN1C(=O)c2ccc3c4c(c(NCc5cn([C@@H]6O[C@H](CO)[C@@H](O)[C@H](O)[C@H]6O)nn5)cc(c24)C1=O)C(=O)N(CCCN(C)C)C3=O | – | – | – | 2.1 | 8100 | 3910 | 24
11 | CN(C)CCCc1cc2c3c(c(NCCCn4cc(CO[C@@H]5O[C@H](CO)[C@@H](O)[C@H](O)[C@H]5O)nn4)cc4c3c1C(=O)N(CCCN(C)C)C4=O)C(=O)N(CCCN(C)C)C2=O | 850 | 5.7 | 490 | > 3.8 | > 10000 | 2630 | 150
12 | CN(C)CCCN1C(=O)c2ccc3c4c(c(NCCCn5cc(CCO[C@H]6O[C@H](CO)[C@@H](O)[C@H](O)[C@@H]6O)nn5)cc(c24)C1=O)C(=O)N(CCCN(C)C)C3=O | 170 | 0.9 | 2790 | – | – | – | 180
13 | CN(C)CCCN1C(=O)c2ccc3c4c(c(NCCCn5cc(CO[C@H]6O[C@H](CO)[C@@H](O)[C@H](O)[C@@H]6O)nn5)cc(c24)C1=O)C(=O)N(CCCN(C)C)C3=O | 230 | 1.1 | 2410 | 3.8 | 1780 | 470 | 210
14 | CN(C)CCCN1C(=O)c2ccc3c4c(c(NCCCn5cc(CO[C@@H]6O[C@H](CO)[C@@H](O[C@H]7O[C@H](CO)[C@@H](O)[C@H](O)[C@H]7O)[C@H](O)[C@H]6O)nn5)cc(c24)C1=O)C(=O)N(CCCN(C)C)C3=O | 4340 | 16.1 | 6790 | – | – | – | 270
15 | CN(C)CCCN1C(=O)c2ccc3c4c(c(NCCCn5cc(CO[C@@H]6O[C@H](CO)[C@@H](O)[C@H](O)[C@H]6O)nn5)cc(c24)C1=O)C(=O)N(CCCN(C)C)C3=O | 260 | 1.2 | 430 | 2.2 | 1440 | 660 | 220
16 | CCCNc1cc2c3c(c(CCCN(C)C)cc4c3c1C(=O)N(CCCN(C)C)C4=O)C(=O)N(CCCN(C)C)C2=O | 80 | 26.7 | 740 | – | – | 3800 | 3
17 | CN(C)CCCN1C(=O)c2ccc3c4c(c(NCCCn5cc(CCO[C@@H]6O[C@H](CO)[C@@H](O[C@@H]7O[C@H](CO)[C@H](O)[C@H](O)[C@H]7O)[C@H](O)[C@H]6O)nn5)cc(c24)C1=O)C(=O)N(CCCN(C)C)C3=O | 1170 | 3.5 | 1930 | > 2.1 | > 10000 | 4710 | 330
18 | CN(C)CCCc1cc2c3c(c(NCCCn4cc(COCCOCCOCCO[C@@H]5O[C@H](CO)[C@@H](O[C@@H]6O[C@H](CO)[C@H](O)[C@H](O)[C@H]6O)[C@H](O)[C@H]5O)nn4)cc4c3c1C(=O)N(CCCN(C)C)C4=O)C(=O)N(CCCN(C)C)C2=O | 7040 | 8.5 | 8980 | – | – | – | 830
19 | CN(C)CCCN1C(=O)c2ccc3c4c(c(NCCCn5cc(CCO[C@@H]6O[C@H](CO)[C@@H](O[C@H]7O[C@H](CO)[C@@H](O)[C@H](O)[C@H]7O)[C@H](O)[C@H]6O)nn5)cc(c24)C1=O)C(=O)N(CCCN(C)C)C3=O | 220 | 1.7 | 4680 | 3.5 | 1520 | 430 | 130
20 | CN(C)CCCc1cc2c3c(c(NCCCn4cc(COCCOCCOCCO[C@@H]5O[C@H](CO)[C@@H](O[C@H]6O[C@H](CO)[C@@H](O)[C@H](O)[C@H]6O)[C@H](O)[C@H]5O)nn4)cc4c3c1C(=O)N(CCCN(C)C)C4=O)C(=O)N(CCCN(C)C)C2=O | > 20000 | > 51 | 10700 | – | – | – | 390
21 | CN(C)CCCc1cc2c3c(c(NCCCn4cc(CCO[C@@H]5O[C@H](CO)[C@@H](O[C@H]6O[C@H](CO)[C@@H](O)[C@H](O)[C@H]6O)[C@H](O)[C@H]5O)nn4)cc4c3c1C(=O)N(CCCN(C)C)C4=O)C(=O)N(CCCN(C)C)C2=O | 11100 | 32.7 | 2890 | – | – | – | 340
22 | CN(C)CCCN1C(=O)c2ccc3c4c(c(NCCCn5cc(COCCOCCOCCO[C@@H]6O[C@H](CO)[C@@H](O[C@H]7O[C@H](CO)[C@@H](O)[C@H](O)[C@H]7O)[C@H](O)[C@H]6O)nn5)cc(c24)C1=O)C(=O)N(CCCN(C)C)C3=O | 3300 | 82.5 | 160 | > 2.2 | > 10000 | 4520 | 40
23 | CN(C)CCCc1cc2c3c(c(NCCCn4cc(CCO[C@H]5O[C@H](CO)[C@@H](O)[C@H](O)[C@@H]5O)nn4)cc4c3c1C(=O)N(CCCN(C)C)C4=O)C(=O)N(CCCN(C)C)C2=O | 5150 | 16.6 | 1970 | – | > 10000 | > 5000 | 310
24 | CN(C)CCCN1C(=O)c2ccc3c4c(c(NCCCn5cc(CO[C@@H]6O[C@H](CO)[C@@H](O[C@@H]7O[C@H](CO)[C@H](O)[C@H](O)[C@H]7O)[C@H](O)[C@H]6O)nn5)cc(c24)C1=O)C(=O)N(CCCN(C)C)C3=O | 1240 | 3.4 | 1030 | 2 | 9290 | 4720 | 370
